Reference: paper PMC5831858, “Pharmacological characterisation of CR6086, a potent prostaglandin E2 receptor 4 antagonist, as a new potential disease-modifying anti-rheumatic drug” (Arthritis Research & Therapy, 2018)

What was measured:
MT1 (ML1A) = MT1 (ML1A) (Homo sapiens, UniProt P48039); test: MT1 receptor binding; details: [^125I]2-iodomelatonin, Human recombinant CHO cells, read-out: CR6086 Activity at 10µM
AR = AR (Homo sapiens, UniProt P10275, T878A); test: Nuclear receptor AR binding; details: [^3H]methyltrienolone, LNCaP cells, read-out: CR6086 Activity at 10µM
AR, sequence (P10275 whole entry T878A): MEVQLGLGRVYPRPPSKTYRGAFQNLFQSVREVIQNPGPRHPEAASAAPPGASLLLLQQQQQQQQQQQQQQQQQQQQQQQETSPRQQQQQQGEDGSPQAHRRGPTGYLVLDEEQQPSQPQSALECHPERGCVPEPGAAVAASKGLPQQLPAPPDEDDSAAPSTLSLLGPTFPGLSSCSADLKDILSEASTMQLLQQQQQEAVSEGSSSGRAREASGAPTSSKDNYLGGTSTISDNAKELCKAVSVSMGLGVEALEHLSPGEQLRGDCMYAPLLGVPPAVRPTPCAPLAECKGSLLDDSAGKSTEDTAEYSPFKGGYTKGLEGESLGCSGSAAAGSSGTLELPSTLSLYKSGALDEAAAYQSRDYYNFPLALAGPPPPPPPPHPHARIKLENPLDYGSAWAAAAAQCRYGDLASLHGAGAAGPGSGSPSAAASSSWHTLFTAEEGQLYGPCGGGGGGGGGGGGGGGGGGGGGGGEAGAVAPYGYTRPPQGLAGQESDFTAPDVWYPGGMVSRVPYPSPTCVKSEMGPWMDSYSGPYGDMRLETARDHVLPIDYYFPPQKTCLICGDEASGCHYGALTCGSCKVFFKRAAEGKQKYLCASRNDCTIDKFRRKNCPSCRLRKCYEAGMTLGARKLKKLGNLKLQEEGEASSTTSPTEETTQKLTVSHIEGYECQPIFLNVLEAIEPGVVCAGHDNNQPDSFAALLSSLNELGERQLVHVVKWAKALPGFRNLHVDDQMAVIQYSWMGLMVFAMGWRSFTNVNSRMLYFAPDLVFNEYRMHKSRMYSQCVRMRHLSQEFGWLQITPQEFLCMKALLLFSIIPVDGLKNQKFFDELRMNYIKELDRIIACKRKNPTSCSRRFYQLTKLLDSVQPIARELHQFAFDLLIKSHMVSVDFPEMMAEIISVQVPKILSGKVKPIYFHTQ

D4,4 = D4,4 (Homo sapiens, UniProt P21917); test: Dopamine receptor D4,4 binding; details: [^3H]methyl-spiperone, Human recombinant CHO cells, read-out: CR6086 Activity at 10µM
GAL2 = GAL2 (Homo sapiens, UniProt O43603); test: Galanin receptor GAL2 binding; details: [^125I]galanin, Human recombinant CHO cells, read-out: CR6086 Activity at 10µM
TP (TXA2/PGH2) = TP (TXA2/PGH2) (Homo sapiens, UniProt P21731); test: Eicosanoid receptor TP binding; details: [^3H]SQ 29548, HEK-293 cells, read-out: CR6086 Activity at 10µM
EP3 = target: T1, EP3 (Homo sapiens, UniProt P43115); test: Eicosanoid receptor EP3 binding; details: [^3H]PGE2, HEK-293 cells, read-out: CR6086 Activity at 10µM
T1 construct: host or cells: HEK-293 cells

5-HT2B = 5-HT2B (Homo sapiens, UniProt P41595); test: Serotonin receptor 5-HT2B binding; details: [^125I](±)DOI, Human recombinant CHO cells, read-out: CR6086 Activity at 10µM
5-HT2B, sequence (P41595 whole entry): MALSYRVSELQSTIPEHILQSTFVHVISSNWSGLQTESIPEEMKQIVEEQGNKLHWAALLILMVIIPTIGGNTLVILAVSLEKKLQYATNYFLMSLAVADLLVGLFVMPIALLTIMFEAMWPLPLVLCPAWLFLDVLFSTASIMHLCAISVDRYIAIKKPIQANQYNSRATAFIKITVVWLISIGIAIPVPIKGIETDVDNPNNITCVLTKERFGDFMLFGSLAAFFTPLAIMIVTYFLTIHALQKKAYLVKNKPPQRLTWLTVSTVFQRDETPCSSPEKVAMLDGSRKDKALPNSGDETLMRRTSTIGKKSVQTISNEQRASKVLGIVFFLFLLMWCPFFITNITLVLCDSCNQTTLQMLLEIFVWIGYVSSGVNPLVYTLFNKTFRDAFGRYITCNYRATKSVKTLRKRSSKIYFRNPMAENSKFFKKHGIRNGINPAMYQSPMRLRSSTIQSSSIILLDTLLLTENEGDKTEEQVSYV

COX-2 = target: T2, COX-2 (Homo sapiens, UniProt P35354); test: Cyclooxygenase COX-2 enzymatic activity; type: biochemical; details: Sf9 cells, read-out: CR6086 Activity at 10µM
T2 construct: host or cells: Sf9 cells
T2 sequence (P35354 18-604): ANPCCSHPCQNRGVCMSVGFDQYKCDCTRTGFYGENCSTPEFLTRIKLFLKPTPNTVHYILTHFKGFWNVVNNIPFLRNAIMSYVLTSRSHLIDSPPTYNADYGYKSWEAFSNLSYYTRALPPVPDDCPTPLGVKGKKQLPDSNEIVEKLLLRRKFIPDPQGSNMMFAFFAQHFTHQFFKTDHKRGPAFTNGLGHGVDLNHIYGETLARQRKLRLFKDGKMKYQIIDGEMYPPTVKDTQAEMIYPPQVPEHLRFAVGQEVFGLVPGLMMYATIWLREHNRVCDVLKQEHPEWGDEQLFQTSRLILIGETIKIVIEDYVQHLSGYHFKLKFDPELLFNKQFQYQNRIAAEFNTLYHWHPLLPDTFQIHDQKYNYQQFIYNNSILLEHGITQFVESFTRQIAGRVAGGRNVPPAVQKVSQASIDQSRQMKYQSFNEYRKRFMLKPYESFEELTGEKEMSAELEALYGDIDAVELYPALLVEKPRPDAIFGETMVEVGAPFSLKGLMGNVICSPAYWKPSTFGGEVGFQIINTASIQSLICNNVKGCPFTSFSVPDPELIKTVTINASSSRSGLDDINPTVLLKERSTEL

D3 = D3 (Homo sapiens, UniProt P35462); test: Dopamine receptor D3 binding; details: [^3H]methyl-spiperone, Human recombinant CHO cells, read-out: CR6086 Activity at 10µM
D3, sequence (P35462 whole entry): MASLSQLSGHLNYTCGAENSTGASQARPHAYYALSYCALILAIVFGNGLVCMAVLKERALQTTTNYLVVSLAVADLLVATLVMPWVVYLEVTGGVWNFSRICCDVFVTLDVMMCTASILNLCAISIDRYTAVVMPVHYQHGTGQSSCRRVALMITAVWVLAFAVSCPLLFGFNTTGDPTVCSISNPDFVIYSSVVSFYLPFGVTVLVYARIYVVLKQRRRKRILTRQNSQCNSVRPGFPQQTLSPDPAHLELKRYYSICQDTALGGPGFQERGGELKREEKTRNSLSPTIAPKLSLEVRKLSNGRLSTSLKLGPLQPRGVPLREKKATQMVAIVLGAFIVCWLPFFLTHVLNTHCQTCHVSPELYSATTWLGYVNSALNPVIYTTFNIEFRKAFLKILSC

CB1 = CB1 (Homo sapiens, UniProt P21554); test: Cannabinoid receptor CB1 binding; details: [^3H]CP 55940, Human recombinant CHO cells, read-out: CR6086 Activity at 10µM
CB1, sequence (P21554 whole entry): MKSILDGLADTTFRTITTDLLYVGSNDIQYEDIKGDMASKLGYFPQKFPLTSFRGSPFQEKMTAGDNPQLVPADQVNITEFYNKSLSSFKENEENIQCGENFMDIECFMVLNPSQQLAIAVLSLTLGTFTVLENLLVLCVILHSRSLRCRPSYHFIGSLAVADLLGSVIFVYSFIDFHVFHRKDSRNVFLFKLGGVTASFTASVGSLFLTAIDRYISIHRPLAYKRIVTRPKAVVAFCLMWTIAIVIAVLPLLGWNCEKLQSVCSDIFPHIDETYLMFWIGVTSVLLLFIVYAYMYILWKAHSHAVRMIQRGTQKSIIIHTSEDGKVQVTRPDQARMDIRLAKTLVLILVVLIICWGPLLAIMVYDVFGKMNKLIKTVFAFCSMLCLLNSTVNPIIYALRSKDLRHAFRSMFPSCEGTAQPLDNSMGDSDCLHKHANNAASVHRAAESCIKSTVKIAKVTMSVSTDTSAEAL

P2X = test: Purinergic receptor P2X binding; details: [^3H]α,β-MeATP, Rat urinary bladder
V1a = V1a (Homo sapiens, UniProt P37288); test: V1a receptor binding; details: [^3H]AVP, Human recombinant CHO cells, read-out: CR6086 Activity at 10µM
GAL1 = GAL1 (Homo sapiens, UniProt P47211); test: Galanin receptor GAL1 binding; details: [^125I]galanin, Human recombinant HEK-293 cells, read-out: CR6086 Activity at 10µM
GAL1, sequence (P47211 whole entry): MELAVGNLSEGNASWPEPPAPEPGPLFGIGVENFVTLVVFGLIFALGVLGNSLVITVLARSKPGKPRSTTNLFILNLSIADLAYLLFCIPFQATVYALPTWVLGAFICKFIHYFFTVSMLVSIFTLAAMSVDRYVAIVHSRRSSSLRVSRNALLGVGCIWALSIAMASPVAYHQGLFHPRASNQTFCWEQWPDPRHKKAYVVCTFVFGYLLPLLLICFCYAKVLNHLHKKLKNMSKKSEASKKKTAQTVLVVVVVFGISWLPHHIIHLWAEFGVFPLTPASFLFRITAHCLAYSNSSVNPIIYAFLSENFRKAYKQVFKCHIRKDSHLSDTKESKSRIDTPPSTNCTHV

DP1 = DP1 (Homo sapiens, UniProt Q13258); test: Eicosanoid receptor DP1 functional assay; type: cell-based; details: CHO cells
DP1, sequence (Q13258 whole entry): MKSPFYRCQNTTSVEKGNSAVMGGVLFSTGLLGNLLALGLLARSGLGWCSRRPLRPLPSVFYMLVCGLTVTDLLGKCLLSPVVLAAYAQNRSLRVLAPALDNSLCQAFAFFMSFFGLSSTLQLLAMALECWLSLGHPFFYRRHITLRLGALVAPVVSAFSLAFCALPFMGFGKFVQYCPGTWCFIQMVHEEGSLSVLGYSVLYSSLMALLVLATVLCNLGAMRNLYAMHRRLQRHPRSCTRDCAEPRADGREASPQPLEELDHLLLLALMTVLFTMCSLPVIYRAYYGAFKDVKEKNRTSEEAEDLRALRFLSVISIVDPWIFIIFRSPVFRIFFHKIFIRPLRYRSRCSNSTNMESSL

5-HT5a = 5-HT5a (Homo sapiens, UniProt P47898); test: Serotonin receptor 5-HT5a binding; details: [^3H]LSD, Human recombinant HEK-293 cells, read-out: CR6086 Activity at 10µM
A3 = A3 (Homo sapiens, UniProt P0DMS8); test: Adenosine receptor A3 binding; details: [^125I]AB-MECA, Human recombinant HEK-293 cells, read-out: CR6086 Activity at 10µM
5-HT7 = 5-HT7 (Homo sapiens, UniProt P34969); test: Serotonin receptor 5-HT7 binding; details: [^3H]LSD, Human recombinant CHO cells, read-out: CR6086 Activity at 10µM
EP1 = target: T3, EP1 (Homo sapiens, UniProt P34995); test: Eicosanoid receptor EP1 binding; details: [^3H]PGE2, HEK-293 cells, read-out: CR6086 Activity at 10µM
T3 construct: host or cells: HEK-293 cells
T3 sequence (P34995 whole entry): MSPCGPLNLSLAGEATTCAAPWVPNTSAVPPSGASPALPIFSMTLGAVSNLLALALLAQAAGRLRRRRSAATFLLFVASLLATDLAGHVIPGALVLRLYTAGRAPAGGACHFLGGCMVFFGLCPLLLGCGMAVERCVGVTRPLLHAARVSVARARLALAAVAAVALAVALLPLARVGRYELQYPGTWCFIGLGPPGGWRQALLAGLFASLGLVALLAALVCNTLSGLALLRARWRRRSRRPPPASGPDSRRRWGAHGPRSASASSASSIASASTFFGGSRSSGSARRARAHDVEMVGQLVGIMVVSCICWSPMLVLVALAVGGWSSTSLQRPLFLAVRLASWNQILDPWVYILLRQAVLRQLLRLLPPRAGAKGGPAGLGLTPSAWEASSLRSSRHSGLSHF

ETA = ETA (Homo sapiens, UniProt P25101); test: Endothelin receptor ETA binding; details: [^125I]endothelin-1, Human recombinant CHO cells, read-out: CR6086 Activity at 10µM
VPAC1 (VIP1) = VPAC1 (VIP1) (Homo sapiens, UniProt P32241); test: VPAC1 receptor binding; details: [^125I]VIP, Human recombinant CHO cells, read-out: CR6086 Activity at 10µM
5-HT1B = 5-HT1B (Rattus norvegicus, UniProt P28564); test: Serotonin receptor 5-HT1B binding; details: [^125I]CYP (+30µM isoproterenol), Rat cerebral cortex, read-out: CR6086 Activity at 10µM
5-HT1B, sequence (P28564 whole entry): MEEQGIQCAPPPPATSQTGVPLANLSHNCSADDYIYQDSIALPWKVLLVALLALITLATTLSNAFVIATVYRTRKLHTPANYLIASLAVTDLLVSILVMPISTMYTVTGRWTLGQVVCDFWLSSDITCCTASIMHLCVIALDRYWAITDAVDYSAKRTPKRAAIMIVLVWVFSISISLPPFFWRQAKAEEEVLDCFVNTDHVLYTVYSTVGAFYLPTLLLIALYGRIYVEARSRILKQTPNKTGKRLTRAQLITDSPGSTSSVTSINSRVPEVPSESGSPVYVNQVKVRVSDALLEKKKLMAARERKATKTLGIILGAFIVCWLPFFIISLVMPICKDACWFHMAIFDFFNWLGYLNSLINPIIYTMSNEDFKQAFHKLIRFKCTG

PDGF = PDGF receptor binding; details: [^125I]PDGF BB, Balb/c 3T3 cells
D2S = D2S (Homo sapiens, UniProt P14416); test: Dopamine receptor D2S binding; details: [^3H]methyl-spiperone, Human recombinant HEK-293 cells, read-out: CR6086 Activity at 10µM
D2S, sequence (P14416 1-414 isoform P14416-2): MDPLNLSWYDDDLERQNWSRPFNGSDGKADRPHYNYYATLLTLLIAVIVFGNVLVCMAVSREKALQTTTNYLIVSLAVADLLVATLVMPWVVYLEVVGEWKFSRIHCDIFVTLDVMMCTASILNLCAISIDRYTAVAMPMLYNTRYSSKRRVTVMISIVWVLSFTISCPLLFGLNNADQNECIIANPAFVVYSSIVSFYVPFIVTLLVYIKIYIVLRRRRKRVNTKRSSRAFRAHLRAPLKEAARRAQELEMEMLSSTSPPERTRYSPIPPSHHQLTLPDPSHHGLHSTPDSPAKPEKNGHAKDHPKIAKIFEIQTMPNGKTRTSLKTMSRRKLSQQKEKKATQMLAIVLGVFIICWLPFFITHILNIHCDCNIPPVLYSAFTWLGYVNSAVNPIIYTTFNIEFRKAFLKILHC

IL-6 gene expression = IL-6 gene expression in THP-1 cells differentiated to macrophages; type: cell-based; details: Homo sapiens, LPS 10 ng/ml + PGE2 10 nM, read-out: IC50 transcription of IL-6
Description: The human monocyte cell line THP-1 was obtained from the ATCC and was grown according to the instructions provided. THP-1 monocytic cells were differentiated to macrophages with 100 nM phorbol 12-myristate 13-acetate (PMA) for 4 days. Macrophages were then stimulated with lipopolysaccharide (LPS) 10 ng/ml and PGE2 10 nM for 3 or 24 h. Total RNA was purified using the ABI Prism 6100 Nucleic Acid PrepStation (Applied Biosystems, Foster City, CA, USA) and retrotranscribed using the High-Capacity cDNA Reverse Transcription Kit (Thermo Fisher Scientific). RT-PCR analysis was performed using the Applied Biosystems 7500 Fast Real-Time PCR System using specific TaqMan assays (number Hs00174131_m1 for IL-6, number Hs00900054_m1 for vascular endothelial growth factor A [VEGFA]; Thermo Fisher Scientific) and, as an endogenous control, the 18S Pre-Developed TaqMan® Assay (Thermo Fisher Scientific). The data analysis, with normalisation on 18S amplified values, was done following Thermo Fisher Scientific’s specific instructions for gene expression relative quantification. All individual data are the result of at least three different analyses for each sample.

NTS1 (NT1) = NTS1 (NT1) (Homo sapiens, UniProt P30989); test: NTS1 receptor binding; details: [^125I]Tyr^3-neurotensin, Human recombinant CHO cells, read-out: CR6086 Activity at 10µM

`O=C([O-])c1ccc(C2(NC(=O)[C@H]3CC4(CCN3Cc3ccc(C(F)(F)F)cc3)CC4)CC2)cc1.[Na+]` [CR6086, Sodium (R)-4-(1-(6-(4-(trifluoromethyl)benzyl)-6-azaspiro[2.5]octane-5-carboxamido)cyclopropyl)benzoate] gave an inhibition at 10 µM (MT1 (ML1A)) of less than 20%, an inhibition at 10 µM (AR) of less than 20% and an inhibition at 10 µM (D4,4) of less than 20%. The inhibition at 10 µM (GAL2) was less than 20%, the inhibition at 10 µM (TP (TXA2/PGH2)) was less than 20% and the inhibition at 10 µM (EP3) was less than 20%. For the same compound, the inhibition at 10 µM (5-HT2B) was less than 20%, the inhibition at 10 µM (COX-2) was less than 20% and the inhibition at 10 µM (D3) was less than 20%. For the same compound, the inhibition at 10 µM (CB1) was less than 20%, the “CR6086 Activity at 10µM” value (P2X) was “IN (IN = < 20% displacement or inhibition (all tables))” and the inhibition at 10 µM (V1a) was less than 20%. For the same compound, the inhibition at 10 µM (GAL1) was less than 20%, the inhibition at 10 µM (DP1; agonist effect, read-out: CR6086 Activity at 10µM) was less than 20% and the “CR6086 Activity at 10µM” value (DP1; antagonist effect) was “IN (IN = < 20% displacement or inhibition (all tables))”. The inhibition at 10 µM (5-HT5a) was less than 20%, the inhibition at 10 µM (A3) was less than 20% and the inhibition at 10 µM (5-HT7) was less than 20%. It also gave an inhibition at 10 µM (EP1) of less than 20%, an inhibition at 10 µM (ETA) of less than 20% and an inhibition at 10 µM (VPAC1 (VIP1)) of less than 20%. For the same compound, the inhibition at 10 µM (5-HT1B) was less than 20%, the “CR6086 Activity at 10µM” value (PDGF) was “IN (IN = < 20% displacement or inhibition (all tables))” and the inhibition at 10 µM (D2S) was less than 20%. For the same compound, the IC50 (IL-6 gene expression) was 70 nM and the inhibition at 10 µM (NTS1 (NT1)) was less than 20%.
